Assay results published in PubChem BioAssay AID1963841 (Molecular Pharmacology Branch, DTP, NCI, 2024).

Tested on: 439559-082-T-J2-PDC spheroid viability
Experiment: Anticancer human tumor 439559-082-T-J2-PDC patient-derived colon adenocarcinoma cell line growth inhibition [POLQ]
Conditions: spheroids with HUVEC and MSC; for IC50: curve of first compound; for viability, T/C: stronger effect = lower value
In short: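 Growth inhibition in 3D: complex spheroids (tumor PDC, HUVEC, MSC) treated with POLQ inhibitor combinations; where Cmax unknown, highest tested concentration 10 microM, except SN-38 at 1 microM.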

[1] = second compound 0.0316 µM, first compound 0.0316 µM
[2] = second compound 0.0316 µM, first compound 0.1 µM
[3] = second compound 0.1 µM, first compound 0.0316 µM
[4] = second compound 0.1 µM, first compound 0.1 µM
[5] = second compound 0.316 µM, first compound 0.0316 µM
[6] = second compound 0.316 µM, first compound 0.1 µM
[7] = second compound 1 µM, first compound 0.0316 µM
[8] = second compound 1 µM, first compound 0.1 µM
[9] = second compound 3.16 µM, first compound 0.0316 µM
[10] = second compound 3.16 µM, first compound 0.1 µM
[11] = second compound 10 µM, first compound 0.0316 µM
[12] = second compound 10 µM, first compound 0.1 µM
[13] = second compound 0.0316 µM, first compound 0.316 µM
[14] = second compound 0.0316 µM, first compound 1 µM
[15] = second compound 0.0316 µM, first compound 3.16 µM
[16] = second compound 0.0316 µM, first compound 10 µM
[17] = second compound 0.1 µM, first compound 0.316 µM
[18] = second compound 0.1 µM, first compound 1 µM
[19] = second compound 0.1 µM, first compound 3.16 µM
[20] = second compound 0.1 µM, first compound 10 µM
[21] = second compound 0.316 µM, first compound 0.316 µM
[22] = second compound 0.316 µM, first compound 1 µM
[23] = second compound 0.316 µM, first compound 3.16 µM
[24] = second compound 0.316 µM, first compound 10 µM
[25] = second compound 1 µM, first compound 0.316 µM
[26] = second compound 1 µM, first compound 1 µM
[27] = second compound 1 µM, first compound 3.16 µM
[28] = second compound 1 µM, first compound 10 µM
[29] = second compound 3.16 µM, first compound 0.316 µM
[30] = second compound 3.16 µM, first compound 1 µM
[31] = second compound 3.16 µM, first compound 3.16 µM
[32] = second compound 3.16 µM, first compound 10 µM
[33] = second compound 10 µM, first compound 0.316 µM
[34] = second compound 10 µM, first compound 1 µM
[35] = second compound 10 µM, first compound 3.16 µM
[36] = second compound 10 µM, first compound 10 µM
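Also: spheroids exposed to compounds for seven days before readout.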
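For viability, T/C in this document: 100% = DMSO vehicle control viability.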

`Cn1ncnc1[C@H]1c2n[nH]c(=O)c3cc(F)cc(c23)N[C@@H]1c1ccc(F)cc1` + Nc1ccc(C#CCN(C(=O)Cc2ncc(C(F)(F)F)cc2C(F)(F)F)c2ccc(F)cc2)nn1 showed an IC50 (second compound 0.0316 µM) of over 0.1 µM, an IC50 (second compound 0.1 µM) of over 0.1 µM and an IC50 (second compound 0.316 µM) of over 0.1 µM. For the same compound, the IC50 (second compound 1 µM) was over 0.1 µM, the IC50 (second compound 3.16 µM) was over 0.1 µM and the IC50 (second compound 10 µM) was over 0.1 µM. It also gave a viability, T/C (second compound 0.0316 µM, first compound 0.000316 µM) of 91.8%, a viability, T/C (second compound 0.0316 µM, first compound 0.001 µM) of 104% and a viability, T/C (second compound 0.0316 µM, first compound 0.00316 µM) of 89.9%. It also gave a viability, T/C (second compound 0.0316 µM, first compound 0.01 µM) of 103%, a viability, T/C [1] of 101% and a viability, T/C [2] of 91.7%. The viability, T/C (second compound 0.1 µM, first compound 0.000316 µM) was 103%, the viability, T/C (second compound 0.1 µM, first compound 0.001 µM) was 88.9% and the viability, T/C (second compound 0.1 µM, first compound 0.00316 µM) was 86.6%. The viability, T/C (second compound 0.1 µM, first compound 0.01 µM) was 93.2%, the viability, T/C [3] was 93.1% and the viability, T/C [4] was 89.1%. It also gave a viability, T/C (second compound 0.316 µM, first compound 0.000316 µM) of 99.4%, a viability, T/C (second compound 0.316 µM, first compound 0.001 µM) of 112% and a viability, T/C (second compound 0.316 µM, first compound 0.00316 µM) of 90.2%. It also gave a viability, T/C (second compound 0.316 µM, first compound 0.01 µM) of 94.6%, a viability, T/C [5] of 99.1% and a viability, T/C [6] of 90%. For the same compound, the viability, T/C (second compound 1 µM, first compound 0.000316 µM) was 111%, the viability, T/C (second compound 1 µM, first compound 0.001 µM) was 105% and the viability, T/C (second compound 1 µM, first compound 0.00316 µM) was 104%. It also gave a viability, T/C (second compound 1 µM, first compound 0.01 µM) of 102%, a viability, T/C [7] of 94.3% and a viability, T/C [8] of 102%. It also gave a viability, T/C (second compound 3.16 µM, first compound 0.000316 µM) of 85.2%, a viability, T/C (second compound 3.16 µM, first compound 0.001 µM) of 106% and a viability, T/C (second compound 3.16 µM, first compound 0.00316 µM) of 103%. It also gave a viability, T/C (second compound 3.16 µM, first compound 0.01 µM) of 96.2%, a viability, T/C [9] of 99.4% and a viability, T/C [10] of 94.2%. It also gave a viability, T/C (second compound 10 µM, first compound 0.000316 µM) of 93.1%, a viability, T/C (second compound 10 µM, first compound 0.001 µM) of 122% and a viability, T/C (second compound 10 µM, first compound 0.00316 µM) of 87.8%. It also gave a viability, T/C (second compound 10 µM, first compound 0.01 µM) of 85.4%, a viability, T/C [11] of 101% and a viability, T/C [12] of 112%.
For `CC1COCCN1c1cc(C2(O)CC3CCC(C2)O3)c2cnn(-c3ccn[nH]3)c2n1` (stereo unspecified) + Cc1cccc(N(C)C(=O)C2C(O)CCN2c2nc(C)cc(C(F)(F)F)c2C#N)c1, the IC50 (second compound 0.0316 µM) was 3.84 µM, the IC50 (second compound 0.1 µM) was 5.32 µM and the IC50 (second compound 0.316 µM) was 3.18 µM. It also gave an IC50 (second compound 1 µM) of 4.98 µM, an IC50 (second compound 3.16 µM) of 2.87 µM and an IC50 (second compound 10 µM) of 2.93 µM. For the same compound, the viability, T/C [1] was 96.4%, the viability, T/C [2] was 79.1% and the viability, T/C [13] was 71.1%. The viability, T/C [14] was 60.9%, the viability, T/C [15] was 47.7% and the viability, T/C [16] was 46.4%. For the same compound, the viability, T/C [3] was 95.6%, the viability, T/C [4] was 86.1% and the viability, T/C [17] was 66%. The viability, T/C [18] was 60.1%, the viability, T/C [19] was 49.3% and the viability, T/C [20] was 49%. For the same compound, the viability, T/C [5] was 94.5%, the viability, T/C [6] was 79.4% and the viability, T/C [21] was 70.2%. The viability, T/C [22] was 57%, the viability, T/C [23] was 48.4% and the viability, T/C [24] was 46.6%. It also gave a viability, T/C [7] of 95.5%, a viability, T/C [8] of 78.4% and a viability, T/C [25] of 69.3%. For the same compound, the viability, T/C [26] was 61%, the viability, T/C [27] was 51.5% and the viability, T/C [28] was 46.8%. It also gave a viability, T/C [9] of 91.3%, a viability, T/C [10] of 80.8% and a viability, T/C [29] of 66.7%. It also gave a viability, T/C [30] of 57%, a viability, T/C [31] of 48.9% and a viability, T/C [32] of 46.1%. For the same compound, the viability, T/C [11] was 80.9%, the viability, T/C [12] was 73.7% and the viability, T/C [33] was 65.5%. It also gave a viability, T/C [34] of 55.6%, a viability, T/C [35] of 51.6% and a viability, T/C [36] of 41.1%.
For `CCCS(=O)(=O)Nc1ccc(F)c(C(=O)c2c[nH]c3ncc(-c4ccc(Cl)cc4)cc23)c1F` + Cc1cccc(N(C)C(=O)C2C(O)CCN2c2nc(C)cc(C(F)(F)F)c2C#N)c1, the IC50 (second compound 0.0316 µM) was over 10 µM, the IC50 (second compound 0.1 µM) was over 10 µM and the IC50 (second compound 0.316 µM) was over 10 µM. It also gave an IC50 (second compound 1 µM) of over 10 µM, an IC50 (second compound 3.16 µM) of over 10 µM and an IC50 (second compound 10 µM) of over 10 µM. It also gave a viability, T/C [1] of 103%, a viability, T/C [2] of 106% and a viability, T/C [13] of 92.1%. For the same compound, the viability, T/C [14] was 97%, the viability, T/C [15] was 94.8% and the viability, T/C [16] was 80.3%. For the same compound, the viability, T/C [3] was 100%, the viability, T/C [4] was 96.1% and the viability, T/C [17] was 91.5%. For the same compound, the viability, T/C [18] was 94.4%, the viability, T/C [19] was 113% and the viability, T/C [20] was 75.8%. For the same compound, the viability, T/C [5] was 93.5%, the viability, T/C [6] was 94.4% and the viability, T/C [21] was 106%. It also gave a viability, T/C [22] of 86%, a viability, T/C [23] of 99.4% and a viability, T/C [24] of 79.5%. It also gave a viability, T/C [7] of 96.2%, a viability, T/C [8] of 103% and a viability, T/C [25] of 92.8%. The viability, T/C [26] was 95.3%, the viability, T/C [27] was 91.5% and the viability, T/C [28] was 78.3%. For the same compound, the viability, T/C [9] was 99%, the viability, T/C [10] was 90.2% and the viability, T/C [29] was 94.9%. For the same compound, the viability, T/C [30] was 102%, the viability, T/C [31] was 102% and the viability, T/C [32] was 74.4%. It also gave a viability, T/C [11] of 101%, a viability, T/C [12] of 96.3% and a viability, T/C [33] of 82.8%. The viability, T/C [34] was 90.2%, the viability, T/C [35] was 90.2% and the viability, T/C [36] was 70.5%.
